Measured values reported in patent publication US9211310B2, “Use of a Chinese medicine composition in preparing medicaments for treating secondary prevention of myocardial infarction” (TASLY PHARMACEUTICAL GROUP CO., LTD, priority 2010, dated 2015).

Test system: patients after acute myocardial infarction
Assay: TCM symptom score, total and single (chest pain, chest tightness, short breath, fatigue, palpitation, spontaneous perspiration, pale complexion), same clinical trial
Assay type: in vivo, human
From the text: 3508 patients who were in accordance with the diagnostic standards of AMI for 28 days to 2 years and differentiated as Qi deficiency and blood stagnation syndrome by TCM were studied. 0.5 g Chinese medicine composition prepared by the method of EXAMPLE 1 (Coded as QSYQ) was administrated half an hour after meal, 3 times per day.
They included the overall survival time, angina pectoris score, TCM symptom score and life quality score, where angina pectoris score, TCM symptom score and life quality score were evaluated at randomization, in 1st, 3rd, 6th, 9th, 12th month after treatment and 18th month after follow-up.
The analysis method referred to the angina pectoris score.

[1] = 3 months after treatment-baseline, PP
[2] = 6 months after treatment-baseline, FAS
[3] = 6 months after treatment-baseline, PP

## CC(=O)Oc1ccccc1C(=O)O [Control group, aspirine]
[1]
  change of chest pain score −6, percent of patients: (0.97%)
  change of chest tightness score 0, number of patients: 994
  change of chest tightness score 0, percent of patients: (68.88%)
  change of chest tightness score 3, number of patients: 334
  change of chest tightness score 3, percent of patients: (23.15%)
  change of chest tightness score 6, number of patients: 34
  change of chest tightness score 6, percent of patients: (2.36%)
  change of chest tightness score 9, number of patients: 4
  change of chest tightness score 9, percent of patients: (0.28%)
  change of chest tightness score −3, number of patients: 70
  change of chest tightness score −3, percent of patients: (4.85%)
  change of chest tightness score −6, number of patients: 6
  change of chest tightness score −6, percent of patients: (0.42%)
  change of chest tightness score −9, number of patients: 1
  change of chest tightness score −9, percent of patients: (0.07%)
3 months after treatment, FAS
  chest pain score 0, number of patients: 656
  chest pain score 0, percent of patients: (38.21%)
  chest pain score 3, number of patients: 643
  chest pain score 3, percent of patients: (37.45%)
  chest pain score 6, number of patients: 410
  chest pain score 6, percent of patients: (23.88%)
  chest pain score 9, number of patients: 8
  chest pain score 9, percent of patients: (0.47%)
  chest tightness score 0, number of patients: 656
  chest tightness score 0, percent of patients: (38.21%)
  chest tightness score 3, number of patients: 643
  chest tightness score 3, percent of patients: (37.45%)
  chest tightness score 6, number of patients: 410
  chest tightness score 6, percent of patients: (23.88%)
  chest tightness score 9, number of patients: 8
  chest tightness score 9, percent of patients: (0.47%)
3 months after treatment, PP
  chest pain score 0, number of patients: 550
  chest pain score 0, percent of patients: (38.01%)
  chest pain score 3, number of patients: 535
  chest pain score 3, percent of patients: (36.97%)
  chest pain score 6, number of patients: 356
  chest pain score 6, percent of patients: (24.60%)
  chest pain score 9, number of patients: 6
  chest pain score 9, percent of patients: (0.41%)
  chest tightness score 0, number of patients: 550
  chest tightness score 0, percent of patients: (38.01%)
  chest tightness score 3, number of patients: 535
  chest tightness score 3, percent of patients: (36.97%)
  chest tightness score 6, number of patients: 356
  chest tightness score 6, percent of patients: (24.60%)
  chest tightness score 9, number of patients: 6
  chest tightness score 9, percent of patients: (0.41%)
[2]
  change of chest pain score 0, number of patients: 1104
  change of chest pain score 0, percent of patients: (64.60%)
  change of chest pain score 3, number of patients: 405
  change of chest pain score 3, percent of patients: (23.70%)
  change of chest pain score 6, number of patients: 101
  change of chest pain score 6, percent of patients: (5.91%)
  change of chest pain score 9, number of patients: 6
  change of chest pain score 9, percent of patients: (0.35%)
  change of chest pain score −3, number of patients: 80
  change of chest pain score −3, percent of patients: (4.68%)
  change of chest pain score −6, number of patients: 13
  change of chest pain score −6, percent of patients: (0.76%)
  change of chest pain score −9, number of patients: 0
  change of chest pain score −9, percent of patients: (0.00%)
  change of chest tightness score 0, number of patients: 1105
  change of chest tightness score 0, percent of patients: (64.66%)
  change of chest tightness score 1, number of patients: 1
  change of chest tightness score 1, percent of patients: (0.06%)
  change of chest tightness score 3, number of patients: 459
  change of chest tightness score 3, percent of patients: (26.86%)
  change of chest tightness score 6, number of patients: 48
  change of chest tightness score 6, percent of patients: (2.81%)
  change of chest tightness score 9, number of patients: 4
  change of chest tightness score 9, percent of patients: (0.23%)
  change of chest tightness score −3, number of patients: 88
  change of chest tightness score −3, percent of patients: (5.15%)
  change of chest tightness score −6, number of patients: 3
  change of chest tightness score −6, percent of patients: (0.18%)
  change of chest tightness score −9, number of patients: 1
  change of chest tightness score −9, percent of patients: (0.06%)
[3]
  change of chest pain score 0, number of patients: 919
  change of chest pain score 0, percent of patients: (64.54%)
  change of chest pain score 3, number of patients: 352
  change of chest pain score 3, percent of patients: (24.72%)
  change of chest pain score 6, number of patients: 86
  change of chest pain score 6, percent of patients: (6.04%)
  change of chest pain score 9, number of patients: 5
  change of chest pain score 9, percent of patients: (0.35%)
  change of chest pain score −3, number of patients: 57
  change of chest pain score −3, percent of patients: (4.00%)
  change of chest pain score −6, number of patients: 5
  change of chest pain score −6, percent of patients: (0.35%)
  change of chest pain score −9, number of patients: 0
  change of chest pain score −9, percent of patients: (0.00%)
  change of chest tightness score 0, number of patients: 904
  change of chest tightness score 0, percent of patients: (63.44%)
  change of chest tightness score 1, number of patients: 1
  change of chest tightness score 1, percent of patients: (0.07%)
  change of chest tightness score 3, number of patients: 407
  change of chest tightness score 3, percent of patients: (28.56%)
  change of chest tightness score 6, number of patients: 42
  change of chest tightness score 6, percent of patients: (2.95%)
  change of chest tightness score 9, number of patients: 3
  change of chest tightness score 9, percent of patients: (0.21%)
  change of chest tightness score −3, number of patients: 64
  change of chest tightness score −3, percent of patients: (4.49%)
  change of chest tightness score −6, number of patients: 3
  change of chest tightness score −6, percent of patients: (0.21%)
  change of chest tightness score −9, number of patients: 1
  change of chest tightness score −9, percent of patients: (0.07%)
6 months after treatment, FAS
  chest pain score 0, number of patients: 729
  chest pain score 0, percent of patients: (42.43%)
  chest pain score 3, number of patients: 638
  chest pain score 3, percent of patients: (37.14%)
  chest pain score 6, number of patients: 345
  chest pain score 6, percent of patients: (20.08%)
  chest pain score 9, number of patients: 6
  chest pain score 9, percent of patients: (0.35%)
  chest tightness score 0, number of patients: 729
  chest tightness score 0, percent of patients: (42.43%)
  chest tightness score 3, number of patients: 638
  chest tightness score 3, percent of patients: (37.14%)
  chest tightness score 6, number of patients: 345
  chest tightness score 6, percent of patients: (20.08%)
  chest tightness score 9, number of patients: 6
  chest tightness score 9, percent of patients: (0.35%)
6 months after treatment, PP
  chest pain score 0, number of patients: 613
